# From PubChem BioAssay AID192 (DTP/NCI, 2004)
# Where “and” joins values, the source holds several entries; their conditions need not be identical. Equal values may be shown once. Toxic doses and inconclusive results are not listed.
# System: BDF1 mice, B16 melanoma ip, median survival T/C
# Test: NCI In Vivo Anticancer Drug Screen. Data for tumor model B16 Melanoma (intraperitoneal) in B6D2F1 (BDF1) mice
# Conditions: endpoint: median survival time, higher = longer survival
# In short: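 Tumor-bearing mice received test compound or vehicle. Survival or tumor size was then measured in both groups. The treated-group figure was divided by the control-group figure.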
# [1] = dose: 25.0 mg/kg/injection, schedule: Q01DX009 (ip), vehicle: Klucel (hydroxypropylcellulose) (HPC)
# [2] = dose: 50.0 mg/kg/injection, schedule: Q01DX009 (ip), vehicle: Klucel (hydroxypropylcellulose) (HPC)
# [3] = dose: 100.0 mg/kg/injection, schedule: Q01DX009 (ip), vehicle: Klucel (hydroxypropylcellulose) (HPC)
# [4] = dose: 25.0 mg/kg/injection, schedule: Q01DX009 (ip), vehicle: saline with Tween-80
# [5] = dose: 50.0 mg/kg/injection, schedule: Q01DX009 (ip), vehicle: saline with Tween-80
# [6] = dose: 100.0 mg/kg/injection, schedule: Q01DX009 (ip), vehicle: saline with Tween-80
# [7] = dose: 200.0 mg/kg/injection, schedule: Q01DX009 (ip), vehicle: saline with Tween-80
# [8] = dose: 200.0 mg/kg/injection, schedule: Q01DX009 (ip), vehicle: Klucel (hydroxypropylcellulose) (HPC)
# [9] = dose: 400.0 mg/kg/injection, schedule: Q01DX009 (ip), vehicle: saline with Tween-80
# [10] = dose: 6.25 mg/kg/injection, schedule: Q01DX009 (ip), vehicle: saline with Tween-80
# [11] = dose: 12.5 mg/kg/injection, schedule: Q01DX009 (ip), vehicle: saline with Tween-80
# [12] = dose: 6.25 mg/kg/injection, schedule: Q01DX009 (ip), vehicle: saline
# [13] = dose: 12.5 mg/kg/injection, schedule: Q01DX009 (ip), vehicle: saline
# [14] = dose: 25.0 mg/kg/injection, schedule: Q01DX009 (ip), vehicle: saline
smiles,measurement,setting,value
CC1(C)Oc2c(ccc(O)c2CN2CCOCC2)C2=C1CCCC2,T/C,"dose: 64.0 mg/kg/injection, schedule: Q01DX009 (ip), vehicle: Klucel (hydroxypropylcellulose) (HPC)",96 % of control
same,T/C,"dose: 128.0 mg/kg/injection, schedule: Q01DX009 (ip), vehicle: Klucel (hydroxypropylcellulose) (HPC)",96 % of control
same,T/C,"dose: 256.0 mg/kg/injection, schedule: Q01DX009 (ip), vehicle: Klucel (hydroxypropylcellulose) (HPC)",101 % of control
O=[N+]([O-])c1ccc(Oc2cc(Cl)c(Cl)cc2Cl)c([N+](=O)[O-])c1,T/C,[1],107 % of control
same,T/C,[2],106 % of control
same,T/C,[3],99 % of control
COC1=C(N2CC2)C(=O)C(OC)=C(N2CC2)C1=O,T/C,"dose: 0.25 mg/kg/injection, schedule: Q01DX009 (ip), vehicle: other",112 % of control and 118 % of control
same,T/C,"dose: 1.0 mg/kg/injection, schedule: Q01DX009 (ip), vehicle: saline with Tween-80",179 % of control
same,T/C,"dose: 2.0 mg/kg/injection, schedule: Q01DX009 (ip), vehicle: other",169 % of control
CNC(=O)Nc1nccs1,T/C,[4],97 % of control
same,T/C,[5],95 % of control
same,T/C,[6],106 % of control
same,T/C,[7],91 % of control
O=C1NC(=O)/C(=C/c2ccccc2)N1,T/C,[3],100 % of control
same,T/C,[8],107 % of control
Cc1cc(C)c(C(=O)CC(=O)c2cccnc2)c(C)c1,T/C,"dose: 100.0 mg/kg/injection, schedule: Q01DX009 (ip), vehicle: saline + Tween-80 + alcohol",98 % of control
same,T/C,"dose: 200.0 mg/kg/injection, schedule: Q01DX009 (ip), vehicle: saline + Tween-80 + alcohol",91 % of control
O=C(Nc1ccccc1)c1ccc(Cl)c([N+](=O)[O-])c1,T/C,[4],113 % of control
same,T/C,[5],111 % of control
same,T/C,[6],106 % of control
COc1cc(C(=O)N2CCN(c3ccccc3)CC2)c2ccccc2n1,T/C,[6],119 % of control
same,T/C,[7],119 % of control
same,T/C,[9],124 % of control
Clc1ccc(COC(Cn2ccnc2)c2ccc(Cl)cc2Cl)c(Cl)c1 (stereo not given),T/C,[1],106 % of control
same,T/C,[2],115 % of control
same,T/C,[3],96 % of control
same,T/C,[8],106 % of control
CC(=N\O)/C(C)=N/O.CC(=N\O)/C(C)=N/O.CC(=N\O)/C(C)=N/O.CC(=N\O)/C(C)=N/O.[CH3-].[CH3-].[Co].[Co],T/C,[1],107 % of control
same,T/C,[2],90 % of control
same,T/C,[3],100 % of control
CC(=O)Nc1ccc(NC(=O)c2ccc([As](O)O)cc2)cc1,T/C,"dose: 12.5 mg/kg/injection, schedule: Q01DX009 (ip), vehicle: Klucel (hydroxypropylcellulose) (HPC)",104 % of control
same,T/C,[1],105 % of control
same,T/C,[2],91 % of control
same,T/C,[3],105 % of control
O=C1NC(=O)C(Cc2ccccc2)(c2ccccc2)N1 (stereo not given),T/C,[5],105 % of control
same,T/C,[6],102 % of control
CC(=O)OC1OC(=O)C(C)(C(C)=O)C1C (stereo not given),T/C,"dose: 2.5 mg/kg/injection, schedule: Q01DX009 (ip), vehicle: distilled water + alcohol",104 % of control
same,T/C,"dose: 5.0 mg/kg/injection, schedule: Q01DX009 (ip), vehicle: distilled water + alcohol",102 % of control
same,T/C,"dose: 10.0 mg/kg/injection, schedule: Q01DX009 (ip), vehicle: distilled water + alcohol",104 % of control
CC(=O)Oc1cc2c3c(c1)CCCN3CCC2,T/C,"dose: 3.13 mg/kg/injection, schedule: Q01DX009 (ip), vehicle: saline with Tween-80",90 % of control
same,T/C,[10],90 % of control
same,T/C,"dose: 15.0 micrograms/kg/injection, schedule: Q01DX009 (ip), vehicle: saline",104 % of control
same,T/C,"dose: 30.0 micrograms/kg/injection, schedule: Q01DX009 (ip), vehicle: saline",97 % of control
same,T/C,"dose: 60.0 micrograms/kg/injection, schedule: Q01DX009 (ip), vehicle: saline",93 % of control
same,T/C,"dose: 250.0 micrograms/kg/injection, schedule: Q01DX009 (ip), vehicle: saline with Tween-80",86 % of control
same,T/C,"dose: 500.0 micrograms/kg/injection, schedule: Q01DX009 (ip), vehicle: saline with Tween-80",86 % of control
CN(C)c1nc(N(C)C)nc(N(C)C)n1,T/C,"dose: 10.0 mg/kg/injection, schedule: Q01DX009 (ip), vehicle: Klucel (hydroxypropylcellulose) (HPC)",108 % of control
same,T/C,[11],99 % of control and 106 % of control and 107 % of control
same,T/C,"dose: 20.0 mg/kg/injection, schedule: Q01DX009 (ip), vehicle: Klucel (hydroxypropylcellulose) (HPC)",94 % of control
same,T/C,"dose: 20.0 mg/kg/injection, schedule: Q01DX009 (ip), vehicle: saline with Tween-80",88 % of control and 99 % of control
same,T/C,"dose: 20.0 mg/kg/injection, schedule: Q02DX009 (ip), vehicle: saline with Tween-80",103 % of control and 107 % of control
same,T/C,"dose: 25.0 mg/kg/injection, schedule: Q02DX009 (ip), vehicle: Klucel (hydroxypropylcellulose) (HPC)",97 % of control
same,T/C,"dose: 40.0 mg/kg/injection, schedule: Q01DX009 (ip), vehicle: Klucel (hydroxypropylcellulose) (HPC)",100 % of control
same,T/C,"dose: 40.0 mg/kg/injection, schedule: Q01DX009 (ip), vehicle: saline with Tween-80",93 % of control and 97 % of control
same,T/C,"dose: 40.0 mg/kg/injection, schedule: Q02DX009 (ip), vehicle: saline with Tween-80",103 % of control and 112 % of control
same,T/C,"dose: 50.0 mg/kg/injection, schedule: Q02DX009 (ip), vehicle: Klucel (hydroxypropylcellulose) (HPC)",96 % of control
same,T/C,"dose: 80.0 mg/kg/injection, schedule: Q01DX009 (ip), vehicle: Klucel (hydroxypropylcellulose) (HPC)",100 % of control
same,T/C,"dose: 80.0 mg/kg/injection, schedule: Q01DX009 (ip), vehicle: saline with Tween-80",100 % of control and 102 % of control
same,T/C,"dose: 80.0 mg/kg/injection, schedule: Q02DX009 (ip), vehicle: saline with Tween-80",104 % of control and 109 % of control
same,T/C,"dose: 100.0 mg/kg/injection, schedule: Q02DX009 (ip), vehicle: Klucel (hydroxypropylcellulose) (HPC)",101 % of control
same,T/C,"dose: 160.0 mg/kg/injection, schedule: Q01DX009 (ip), vehicle: Klucel (hydroxypropylcellulose) (HPC)",91 % of control
same,T/C,"dose: 160.0 mg/kg/injection, schedule: Q01DX009 (ip), vehicle: saline with Tween-80",111 % of control
same,T/C,"dose: 160.0 mg/kg/injection, schedule: Q02DX009 (ip), vehicle: saline with Tween-80",107 % of control and 115 % of control
same,T/C,"dose: 200.0 mg/kg/injection, schedule: Q02DX009 (ip), vehicle: Klucel (hydroxypropylcellulose) (HPC)",124 % of control
CN(C)CC/C=C1\c2ccccc2CSc2ccccc21,T/C,"dose: 3.12 mg/kg/injection, schedule: Q01DX009 (ip), vehicle: saline",90 % of control and 100 % of control
same,T/C,[12],89 % of control and 100 % of control
same,T/C,[13],97 % of control
same,T/C,[14],104 % of control
same,T/C,"dose: 50.0 mg/kg/injection, schedule: Q01DX009 (ip), vehicle: saline",95 % of control and 102 % of control
COC1=CC(=O)C(OC)=C(OC)C1=O,T/C,"dose: 3.12 mg/kg/injection, schedule: Q01DX009 (ip), vehicle: saline with Tween-80",98 % of control
same,T/C,[10],98 % of control
same,T/C,[11],100 % of control
same,T/C,[4],101 % of control
same,T/C,[5],93 % of control
NC(=O)Oc1cccc(OC(N)=O)c1,T/C,"dose: 12.5 mg/kg/injection, schedule: Q01DX009 (ip), vehicle: water",89 % of control
same,T/C,"dose: 25.0 mg/kg/injection, schedule: Q01DX009 (ip), vehicle: water",94 % of control
same,T/C,"dose: 50.0 mg/kg/injection, schedule: Q01DX009 (ip), vehicle: water",93 % of control
same,T/C,"dose: 100.0 mg/kg/injection, schedule: Q01DX009 (ip), vehicle: water",105 % of control
same,T/C,"dose: 200.0 mg/kg/injection, schedule: Q01DX009 (ip), vehicle: water",93 % of control
same,T/C,"dose: 400.0 mg/kg/injection, schedule: Q01DX009 (ip), vehicle: water",107 % of control
Cc1ccc(C(=O)CCCCl)cc1C,T/C,[6],100 % of control
same,T/C,[7],106 % of control
same,T/C,[9],97 % of control
O=C(O)CCC1CCCCC1=O (stereo not given),T/C,[8],120 % of control
same,T/C,"dose: 400.0 mg/kg/injection, schedule: Q01DX009 (ip), vehicle: Klucel (hydroxypropylcellulose) (HPC)",100 % of control
CC[P+](CC)(CC)c1ccccc1,T/C,[12],101 % of control
same,T/C,[13],110 % of control
same,T/C,[14],111 % of control
C=C1CCN(c2ccc(F)cc2)C1=O,T/C,"dose: 4.0 mg/kg/injection, schedule: Q01DX009 (ip), vehicle: saline + alcohol",104 % of control
same,T/C,"dose: 16.0 mg/kg/injection, schedule: Q01DX009 (ip), vehicle: saline + alcohol",100 % of control
same,T/C,"dose: 32.0 mg/kg/injection, schedule: Q01DX009 (ip), vehicle: saline + alcohol",112 % of control
same,T/C,"dose: 64.0 mg/kg/injection, schedule: Q01DX009 (ip), vehicle: saline + alcohol",110 % of control
C=CC(=O)O,T/C,"dose: 3.13 mg/kg/injection, schedule: Q01DX009 (ip), vehicle: saline",112 % of control
same,T/C,[12],114 % of control
same,T/C,[13],114 % of control
